From paper PMC12418948, “Intranasal Administration of KCNN2 Blocking Peptide Improves Deficits in Cognitive Flexibility in Mouse Model of Fetal Alcohol Spectrum Disorders” (International Journal of Neuropsychopharmacology, 2025)
“Also recorded” adds a separate entry of the source. Positions of bridges follow the written chain, without caps; N, C: chain ends. Non-standard residues stand in square brackets, D forms with d. Residues, ends and D or L forms follow the SMILES beside them. Dab = NCC[C@H](N)C(=O)O

Tests used:
[1] = Physiological monitoring (PhysioSuite) after intranasal administration; format: in vivo, mouse (CD-1)
Procedure: Lei-Dab7 or biotinylated Lei-Dab7 (Smartox Biotechnology, France) was dissolved in PBS and administered to mice intranasally at 3.0 μg/kg/day. Vehicle (PBS) only was administered as the control. Briefly, the mouse was held softly on the neck to avoid any movement during drug administration. A 20-μL pipette was used to deliver 3 to 5 μL drug at a time. The tip was placed close enough to the mouse’s nostril at a 45-degree angle, and the drug was slowly ejected into the nostril. The mouse was let to inhale for 3 to 5 seconds and then left in a cage for 5 minutes to fully inhale the drug. This process was repeated until the required amount of drug was administered in a few minutes. The alternate nostril was used to deliver the drug each time to increase the efficiency of administration. Successful delivery by this method was confirmed by detecting biotinylated Lei-Dab7 in the brain, which was collected and immersion-fixed with 4% PFA at 15 minutes after intranasal administration using ABC (Thermo Fisher Scientific, NY) and TSA (PerkinElmer, MA) kits. For the analysis on the effect of treatment, Lei-Dab7 was administered daily throughout the reversal learning test phase of the water T-maze test. Physiological monitoring was recorded at 30 minutes and 24 hours post administration by using PhysioSuite (Kent Scientific, CT).
Supplementary Figure 4. […] Pulse oximetry, heart rate, and body temperature were recorded at 30 minutes and 24 hours post administration of vehicle control (30 minutes only) or Lei-Dab7 (30 minutes, 24 hours). Siblings from the same mother were used as the control for the Lei-Dab7 treatment. […] Data are presented in box plots. The line within the box indicates the median, and the upper and lower edges of the box represent the 25th and 75th percentiles, respectively. The upper and lower whisker boundaries indicate the 10th and 90th percentiles, respectively, and dots indicate outliers.

[2] = system: KCNN2; assay: Intranasal delivery to PFC, immunohistochemistry for biotin and KCNN2; format: in vivo, mouse (CD-1); settings: PFC in addition to motor cortex
Procedure: Mice were deeply anesthetized with isoflurane (Henry Schein, OH) and perfused through the ascending aorta with ice cold 4% paraformaldehyde (PFA) following a standard laboratory protocol. Brains were collected and post-fixed in 4% PFA at 4°C overnight, followed by incubation in 10% and 30% sucrose in PBS at 4°C for 24 hours. Coronal sections at 60 μm thickness were made using a cryostat (CM3050S; Leica, Germany). Free floating sections were incubated with hydrogen peroxide in methanol (1:4) solution at −20°C for 20 minutes to inactivate endogenous peroxidase activity. […]
Lei-Dab7 or biotinylated Lei-Dab7 (Smartox Biotechnology, France) was dissolved in PBS and administered to mice intranasally at 3.0 μg/kg/day. […] Physiological monitoring was recorded at 30 minutes and 24 hours post administration by using PhysioSuite (Kent Scientific, CT).
KCNN2, NeuN, GFAP, IBA1, and biotin-positive cells were quantified. […] Allen Brain Atlas was used to define different brain regions visualized by DAPI staining, and single-plane images from defined regions were used for the quantification. The researcher conducting the quantification was blinded to treatment groups throughout the analysis to minimize bias. The size of the region of interest was determined for each analysis to include a sufficient number of labeled cells with clear and detailed staining. […]

[3] = system: Jurkat (clone E6-1) cells; assay: ATP cell viability (cytotoxicity) assay, CellTiter-Glo 2.0; format: cell-based, human
Procedure: Potential cytotoxicity of Lei-Dab7 was assessed by an ATP detection assay. Jurkat (clone E6-1) cells were used as they express KCNN2 channels constitutively and have been used to assess the cytotoxicity of compounds that block KCNN2.[37]^,[38] After recovery from cryopreservation, cells were plated into V-bottom, 96-well plates (2 × 10^4 cells per well), and the compound (Lei-Dab7) or control (negative control: media alone or 10% PBS in media; positive control: approximately 1% sodium dodecyl sulfate in media) was added into the culture media. After incubation for 24 hours, cells were assessed for viability using a CellTiter-Glo 2.0 kit (Promega, WI). Briefly, CellTiter-Glo 2.0 reagent was thawed and warmed to approximately 22°C, then mixed by gentle inversion. Once thoroughly mixed, 100 μL of reagent was distributed into each well, and the plates were gently mixed for approximately 2 minutes on an orbital shaker for cell lysis. The plates were then incubated for approximately10 minutes at room temperature to stabilize the luminescent signal. The amount of light produced from each well was quantified using a Cytation 5 plate reader (BioTek, VT). Cell viability was calculated as a percentage of the mean of the negative control […] for each well. […]

[4] = P40, 30 minutes and 24 hours post administration, one-way ANOVA, n = 6 animals from 3 litters per group

## CC[C@H](C)[C@@H]1NC(=O)[C@@H]2CSSC[C@H](NC(=O)[C@H](Cc3ccccc3)NC(=O)[C@H](C)N)C(=O)N[C@@H](CC(N)=O)C(=O)N[C@@H](CC(C)C)C(=O)N[C@@H](CCCNC(=N)N)C(=O)N[C@@H](CCN)C(=O)N[C@H]3CSSC[C@H](NC(=O)[C@H](CCCCN)NC(=O)[C@H](CC(=O)O)NC(=O)CNC1=O)C(=O)N[C@@H](CCC(=O)O)C(=O)N[C@H](C(=O)N[C@H](C(=O)N[C@@H](CCCCN)C(=O)N[C@@H](Cc1c[nH]cn1)C(N)=O)C(C)C)CSSC[C@H](NC(=O)[C@H](CO)NC(=O)[C@H](CC(C)C)NC(=O)[C@H](CCC(N)=O)NC3=O)C(=O)N[C@@H](CCCNC(=N)N)C(=O)N[C@@H](CO)C(=O)N[C@@H](CC(C)C)C(=O)NCC(=O)N[C@@H](CC(C)C)C(=O)N[C@@H](CC(C)C)C(=O)NCC(=O)N[C@@H](CCCCN)C(=O)N2 [Lei-Dab7, Leiurotoxin-1 Dab7] (H-AFCNLR[Dab]CQLSCRSLGLLGKCIGDKCECVKH-NH2; disulfide 3-21, 8-26, 12-28)
[1]; 3.0 μg/kg intranasal, pulse oximetry, heart rate, body temperature, 30 minutes or 24 hours post administration
  toxicity, 3 primary physiological measures: without apparent acute physiological adverse effects; also recorded: No severe toxicity
[1]; [4]
  body temperature vs vehicle: no statistically significant differences
  heart rate vs vehicle: no statistically significant differences
  pulse oximetry vs vehicle: no statistically significant differences
[1]; intranasal, control animals (Figs. 5, S4)
  adverse effects in control animals: no apparent adverse effects in control animals
[2]
  delivery to target brain regions: efficiently reaches the target in the brain; also recorded: effectively reaches its target regions, including the PFC (Figs. 3, 4) in addition to the motor cortex
[3]; 24-hour culture, ATP cell viability assay, even as high as at 100 μM
  cytotoxicity: did not show any cytotoxicity
[3]; in vitro, abstract/introduction wording
  cytotoxicity (summary wording): negligible cytotoxicity; also recorded: no detectable cytotoxicity
